Measurements taken from ChEMBL document CHEMBL1201862, “PubChem BioAssay data set” (2004).
Activity calls are given as the source filed them. For most assays here, no stated cut-off is given here; in the data, actives have a measured AC50 and inactives only a lower limit.

Legend:
[1] = non-specific cell cytotoxicity, dose response, cytotoxicity control for PAX8 inhibitor project, plate reader, dry powder samples (AID 743021); assay type: functional, cell-based
[2] = IGROV1 ovarian cancer cell cytotoxicity, dose response, PAX8 inhibitor project, plate reader, dry powder samples (AID 743043); assay type: functional, cell-based; conditions: IGROV-1
[3] = A2780 ovarian cancer cell cytotoxicity, dose response, cytotoxicity control, plate reader, dry powder samples (AID 743046); assay type: functional, cell-based
[4] = HepG2 cell cytotoxicity, dose response, cytotoxicity control, cherry-picked samples (AID 1159577); assay type: functional, cell-based
[5] = P. falciparum Dd2 growth inhibitors, dose response, SYBR Green, cherry-picked samples (AID 1159567); assay type: functional, cell-based
Caspase-6 = Caspase-6 (Homo sapiens, UniProt P55212); assay: human caspase-6 inhibitors, dose response, biochemical, VEID-R110 fluorescence, cherry-pick (AID 720632)
[6] = target: T1, High affinity choline transporter 1 (Homo sapiens, UniProt Q9GZV3); assay: CHT inhibitors, dose response, cell-based, 5-point CRC, membrane potential dye (AID 504840); assay type: functional
T1 sequence (Q9GZV3 whole entry): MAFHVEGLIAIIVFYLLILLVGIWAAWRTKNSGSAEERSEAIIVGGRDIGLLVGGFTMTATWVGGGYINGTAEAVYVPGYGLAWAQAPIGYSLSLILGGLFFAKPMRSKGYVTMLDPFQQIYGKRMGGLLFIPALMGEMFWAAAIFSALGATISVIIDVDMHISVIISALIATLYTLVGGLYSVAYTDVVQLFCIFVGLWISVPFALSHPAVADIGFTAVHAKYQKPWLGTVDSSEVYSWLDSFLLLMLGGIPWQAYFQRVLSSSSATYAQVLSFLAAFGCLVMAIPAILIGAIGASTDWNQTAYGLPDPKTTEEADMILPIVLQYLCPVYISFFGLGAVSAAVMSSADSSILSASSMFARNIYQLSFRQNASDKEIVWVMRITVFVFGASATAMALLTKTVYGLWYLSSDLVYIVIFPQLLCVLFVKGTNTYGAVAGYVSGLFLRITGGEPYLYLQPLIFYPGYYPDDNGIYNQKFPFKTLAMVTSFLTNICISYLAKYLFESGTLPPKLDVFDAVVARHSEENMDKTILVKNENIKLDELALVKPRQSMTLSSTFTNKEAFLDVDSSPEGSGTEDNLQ

[7] = target: T2, Histone-lysine N-methyltransferase NSD2 (Homo sapiens, UniProt O96028); assay type: biochemical
T2 sequence (O96028 whole entry): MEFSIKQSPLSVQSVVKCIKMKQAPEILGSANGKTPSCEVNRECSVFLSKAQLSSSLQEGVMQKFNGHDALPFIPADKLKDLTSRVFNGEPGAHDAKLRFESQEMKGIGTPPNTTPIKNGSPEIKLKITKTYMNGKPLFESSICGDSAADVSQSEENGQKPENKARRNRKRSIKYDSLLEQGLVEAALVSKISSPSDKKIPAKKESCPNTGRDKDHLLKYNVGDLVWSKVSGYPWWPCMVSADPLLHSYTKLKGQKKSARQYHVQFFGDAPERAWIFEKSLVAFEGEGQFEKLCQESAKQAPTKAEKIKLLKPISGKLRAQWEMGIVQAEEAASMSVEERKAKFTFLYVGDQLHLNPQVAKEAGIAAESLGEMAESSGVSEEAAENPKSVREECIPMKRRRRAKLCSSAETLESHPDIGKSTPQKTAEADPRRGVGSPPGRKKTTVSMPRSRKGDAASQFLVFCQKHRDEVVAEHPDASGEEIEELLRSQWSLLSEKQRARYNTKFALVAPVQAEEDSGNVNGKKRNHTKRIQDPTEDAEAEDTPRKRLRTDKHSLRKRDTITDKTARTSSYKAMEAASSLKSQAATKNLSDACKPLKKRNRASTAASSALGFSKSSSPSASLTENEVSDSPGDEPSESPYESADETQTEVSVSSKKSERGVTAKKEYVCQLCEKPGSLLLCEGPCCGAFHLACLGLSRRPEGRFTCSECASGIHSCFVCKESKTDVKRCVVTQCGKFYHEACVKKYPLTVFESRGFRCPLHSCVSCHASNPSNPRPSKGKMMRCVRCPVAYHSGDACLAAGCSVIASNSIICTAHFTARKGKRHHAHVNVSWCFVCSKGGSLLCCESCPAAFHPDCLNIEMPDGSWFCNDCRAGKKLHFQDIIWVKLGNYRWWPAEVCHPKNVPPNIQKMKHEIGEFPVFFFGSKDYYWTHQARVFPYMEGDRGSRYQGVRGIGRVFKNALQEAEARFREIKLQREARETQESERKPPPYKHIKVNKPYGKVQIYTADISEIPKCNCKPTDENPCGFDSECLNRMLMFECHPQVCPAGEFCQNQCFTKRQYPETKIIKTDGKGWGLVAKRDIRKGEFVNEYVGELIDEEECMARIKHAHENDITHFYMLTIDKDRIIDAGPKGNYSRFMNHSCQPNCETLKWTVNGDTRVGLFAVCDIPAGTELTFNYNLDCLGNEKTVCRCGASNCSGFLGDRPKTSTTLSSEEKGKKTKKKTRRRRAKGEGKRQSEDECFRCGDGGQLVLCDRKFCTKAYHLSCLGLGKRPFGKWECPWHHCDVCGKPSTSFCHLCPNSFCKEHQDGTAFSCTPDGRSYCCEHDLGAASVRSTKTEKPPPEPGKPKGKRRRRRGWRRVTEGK

[8] = HEK293 Cytotoxicity Assay Measured in Cell-Based System Using Plate Reader - 7071-01_Inhibitor_Dose_CherryPick_Activity_Set2.; assay type: functional
HEK293 = assay: HEK293T cell cytotoxicity, dose response, cytotoxicity control, ATP luminescence, cherry-pick samples (AID 687005); assay type: functional, cell-based; conditions: Homo sapiens;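 further: cells exposed to compound for 48 hours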
[9] = reduction of Shn3 3'UTR firefly luciferase signal, dose response, Schnurri-3 inhibitor project, cell-based, Clone20 osteoblasts, cherry-pick, set 2 (AID 720490); assay type: functional;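 further: actives lower the luminescence signal as inhibitors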
[10] = control 3'UTR Renilla luciferase suppression, dose response, counter-screen for Shn3 inhibitor project, cell-based, Clone20-Shn3RL, cherry-picked (AID 624133); assay type: functional
[11] = Shn3 3'UTR reporter inhibitors, dose response, cell-based, Clone20 osteoblasts, firefly luciferase, cherry-picked (AID 624132); assay type: functional;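 further: firefly luciferase luminescence from reporter carrying the Shn3 3'UTR in osteoblasts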
[12] = HepG2 cell cytotoxicity, dose response, cytotoxicity control for Shn3 inhibitor project, CellTiter-Glo, cherry-picked (AID 624134); assay type: functional, cell-based

Caspase-6, sequence (P55212 24-179 limits assumed): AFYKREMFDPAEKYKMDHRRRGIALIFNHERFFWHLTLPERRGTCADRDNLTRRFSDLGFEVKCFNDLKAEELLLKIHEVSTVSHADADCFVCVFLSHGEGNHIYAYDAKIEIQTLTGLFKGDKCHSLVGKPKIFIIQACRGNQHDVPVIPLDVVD
Caspase-6, sequence (P55212 194-293 limits assumed): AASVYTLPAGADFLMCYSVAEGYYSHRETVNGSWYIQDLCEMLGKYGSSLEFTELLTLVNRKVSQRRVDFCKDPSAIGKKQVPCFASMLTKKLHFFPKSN

In the case of `Cc1ccc(-c2ccc([C@@H]3[C@@H]4CN(Cc5ccccc5F)C[C@H]3N4)cc2)cc1`, the AC50 [1] is reported as 13.2 µM (active), the AC50 [2] is reported as 55.4 µM (active) and the AC50 [3] is reported as 63.6 µM (active). For the same compound, the AC50 [4] was 10.3 µM (active) and the AC50 [5] was 4.05 µM (active).
With `CC(C)C(=O)C1=Cc2cccc([N+](=O)[O-])c2OC1N1CCOCC1` (stereo not given) the AC50 (Caspase-6) was 43.7 µM (active).
For `O=C1N/C(=N\c2ccccc2Cl)S/C1=C\c1cccc([N+](=O)[O-])c1O`, the IC50 [6] was 12.6 µM (active), the AC50 (Caspase-6) was 11 µM (active) and the AC50 [7] was 19.2 µM (active).
In the case of `CN1C(=O)c2cc(NC(=O)NC3CCCC3)ccc2OC[C@H]2O[C@@H](CC(=O)NCC3CC3)CC[C@@H]21`, the AC50 [8] is reported as > 57 µM (inactive) and the AC50 (HEK293) is reported as > 57 µM (inactive).
In the case of `Cc1ccc([C@@H]2CC(=O)[C@@H]3CN(S(=O)(=O)c4ccccc4C)[C@H](c4ccc(Cl)cc4)C[C@@H]3N2S(=O)(=O)c2ccc(C)cc2)cc1`, the AC50 [9] is reported as 0.672 µM (active), the AC50 [10] is reported as 3.29 µM (active) and the AC50 [11] is reported as 0.361 µM (active). The AC50 [12] was 36.7 µM (active).
